For one experiment, the system named is macrophages. The experiment is described as follows: In vivo macrophage homing to the pancreas, bioluminescence imaging. Further details: species or system FVB/n mice. To be noted: single dose of hemin 24 h prior to cell transfer. How it is done: FIG. 4: Effect of hemin on in vivo macrophage homing to the pancreas using bioluminescence imaging. (A) Experimental scheme of cell transfer. Hemin (H) was injected 3× intraperitoneally into luciferase-overexpressing (+/+) mice, then peritoneal cells were harvested and macrophages were selected using anti-Mac-1 magnetic beads. Luciferase/Mac-1 double-positive cells were transferred intraperitoneally to wild-type (luciferase −/−) mice that were preinjected with one dose of H or vehicle (V) 24 h prior to the transfer. This hemin injection is necessary to induce pancreatic chemokines (FIG. 3C). (B) Live images of recipient intact anesthetized mice were taken 5 min (a) or 24 h (b) after cell transfer. Livers and pancreata were removed 24 h after the transfer followed by imaging (c). The signal intensity scale bar is shown below each image. (C) A duplicate of the pancreata shown in image c of panel B (from recipients receiving donor cells from H-injected animals) was double-stained with antibodies to luciferase and F4/80. […] Bar in panel c=50 μm.
The present invention offers a novel approach of immune-mediated therapy via the unanticipated effect of hemin on leukocyte recruitment to the pancreas. Based on a mouse animal model of pancreatitis, the therapeutic approach of the present invention has applicability to other mammalian, particularly human, pancreatitis. […]

The test system of another experiment is MIP-1α. Description: Real-time RT-PCR of pancreatic chemokine mRNA after hemin. Type of experiment: in vivo, mice. To be noted: pancreas 24 h after one intraperitoneal injection. How it is done: (§1) FIG. 3: Hemin increases HO-1^+ pancreatic macrophages in association with MCP-1 and MIP-1α induction. (A) Pancreas from CDD-fed mice was triple-stained using antibodies to HO-1 (a), the macrophage marker F4/80 (b), and the granulocyte marker Gr-1 (c). Scale bar in panel d=[…]. (B) Mice were treated intraperitoneally with hemin (H) or vehicle (V) once (H×1) or 3×(H×3, V×3) during a one week period, followed by feeding with CDD or regular chow for 3 d. Pancreata were collected followed by staining and counting F4/80^+ macrophages in 10 randomly selected high power fields (HPF). The mean±SD (3 mice/group) and p-value for the indicated comparisons are shown. (C) Hemin (H) or vehicle (V) were injected intraperitoneally once followed by harvesting of pancreata after 24 h. A non-injected control “C” group was also included. mRNA levels were then estimated from pancreata of 3 mice/group as a ratio of the indicated chemokine to β-actin (mean±SD).
(§2) Real-time reverse transcription (RT)-PCR. Total RNA was isolated from pancreatic tissue using a commercial kit (TEL-TEST; Friendswood, Tex.). First strand cDNA was synthesized using oligo-dT primers and SuperScript II reverse transcriptase (Invitrogen; Carlsbad, Calif.). Real-time quantitative PCR was performed with an ABI Prism 7900 Sequence Detection System (PE Biosystems; Foster City, Calif.) and established primers for MCP-1, MIP-1α, MIP-2, RANTES, and β-actin. Zhong, B., et al., J. Cell Sci. 117:1709-1719; Zhang, Y., McCormick, L. L., Desai, S. R., Wu, C., and Gilliam, A. C. 2002. Murine sclerodermatous graft-versus-host disease, a model for human scleroderma: cutaneous cytokines, chemokines, and immune cell activation. J. Immunol. 168:3088-3098; Walzog, B., Weinmann, P., Jeblonski, F., Scharffetter-Kochanek, K., Bommert, K., and Gaehtgens, P. 1999. A role for beta(2) integrins (CD11/CD18) in the regulation of cytokine20 gene expression of polymorphonuclear neutrophils during the inflammatory response. FASEB J. 13:1855-1865. Primers to β-actin were used as an internal control reference, and the amount of specific cytokine relative to actin transcript was determined and reported as mean±SD.
(In general: Real-time PCR tracks product formation cycle by cycle.)

A further experiment has as its system RANTES. The experiment is described as above. To be noted: pancreas 24 h after one intraperitoneal injection. Type of experiment: in vivo, mice. How it is done: as §1, §2
A further experiment has as its system MIP-2. The description is as above. Type of experiment: in vivo, mice. To be noted: pancreas 24 h after one intraperitoneal injection. How it is done: as §1, §2
The subject of the next experiment is MCP-1. The experiment is described as above. The experiment is classed as in vivo, mice. As to conditions: pancreas 24 h after one intraperitoneal injection. How it is done:
as §1, §2

Another experiment concerns CDD-induced pancreatitis. The experiment is described as follows: Choline deficient diet (CDD)-induced pancreatitis after hemin pretreatment.
The next experiment relates to peritoneal cells. Description: Effect of hemin on peritoneal cell number (cell counting, flow cytometry). To be noted: mice injected during a 7-day period, 3 per group, p 0.06 vs vehicle. Type of experiment: in vivo. How it is done: The effect of hemin or vehicle on peritoneal cell number was assayed. Mice (3 per group) were injected with vehicle or hemin during a 7-day period. Peritoneal cells were then isolated followed by counting. Cell viability was greater than 98% using trypan blue exclusion. The number of cells that were double positive for Mac-1^+ and F4/80^+ was then determined using flow cytometry. P-values compared the hemin treated versus the vehicle treated groups.
On the technique in general: In flow cytometry, cells or beads pass a laser one at a time.

Description for CDD-induced pancreatitis: (D-F) Mice were injected with saline, hemin, or vehicle (8 mice/group)3×(arrows) followed by feeding with CDD for 3 d then harvesting of the pancreata.
Balb/c mice were housed under pathogen-free conditions and utilized in two established models of pancreatitis. […] For the pancreatitis induced by feeding a choline/methionine-deficient diet (CDD), young female mice (15-19 g) were fasted then fed CDD (Harlan Teklad; Madison Wis.) supplemented with 0.5% DL-ethionine (Sigma; St. Louis, Mo.) or normal chow (control group) for 3 d, then switched to normal diet for 1, 2 or 5 d.
Animal procedures. Mice were euthanized by CO2 inhalation then pancreata and lungs were rapidly removed, divided into 3-4 pieces, and blood was collected by intracardiac puncture. Individual lung and pancreas fragments were immediately fixed in 10% formalin, embedded in OCT (Miles; Elkhart, Ind.) or snap-frozen in liquid N2 for subsequent protein, enzyme, and RNA analysis. […] Fixed tissues were sectioned then stained using hematoxylin and eosin (performed by Histo-tec Laboratory; Hayward, Calif.).

In the case of Hemin, the “macrophage recruitment to the pancreas after hemin priming of recipients” value in the experiment with macrophages was “stimulates pancreatic chemokine production and triggers migration of macrophages to the pancreas”. Also, the “MIP-1α mRNA (ratio to β-actin)” value in the experiment with MIP-1α was “induction”. Moreover, the “change in RANTES mRNA level” value with RANTES was “not significant”. In addition, the “change in MIP-2 mRNA level” value in the experiment with MIP-2 is “not significant”. Moreover, the “MCP-1 mRNA (ratio to β-actin)” value with MCP-1 was “induction”. The pancreatic injury entry in the experiment with CDD-induced pancreatitis (figure title) was “inhibition of pancreatic injury”. The “pancreas histology (edema, necrosis)” value in the experiment on CDD-induced pancreatitis (hematoxylin and eosin, mice that survived CDD feeding) was “marked pancreas edema (E) and necrosis (N) in the saline (not shown) and vehicle injected mice, as compared with the “hemin” group”. The survival result in the experiment on CDD-induced pancreatitis (hemin 3× then CDD 3 d, 8 mice/group, p<0.03 vs controls (saline+vehicle)) is listed as “survival difference was significant”. In addition, in the experiment with peritoneal cells, the Total cell number was 7.3 ± 2.1 × 10^6.
